Data on 1 compound can be found in patent US20060257481A1, “Sustained release formulation and dosing schedule of leukotriene synthesis inhibitor for human therapy” (deCODE Genetics ehf., priority 2005, published 2006).

One data set concerns Lp-PLA2. The data set is described as follows: Study DG-031-201 cross-over trial: Lp-PLA2. The class given is in vivo, human. The settings on record: highest dose; [3%,16%], p=0.006. How it is done: Patients who met the study eligebility criteria were enrolled and randomized into 3 different dose-level groups: (1) 64 patients on 250 mg/day therapy with DG-031 (250 mg q.d.), vs placebo; (2) 64 patients on 500 mg/day therapy with DG-031 (250 mg b.i.d.) vs placebo; and (3) 63 patients on 750 mg/day therapy with DG-031 (250 mg t.i.d.) vs placebo. […] All patients received 3 tablets per day. Treatment periods, 4 weeks in duration each, were separated by a 2-week washout period. The placebo tablets were identical in shape, color, form and taste to the active tablets except that they contained no active drug ingredients. Treatment with DG-031 or placebo was in addition to the subject's standard care, including all medications and treatment plan as prescribed by the subject's cardiologist prior to enrolment. A total of 191 subjects were enrolled, with 172 completing all 8 visits or 8 patients short of the target of 180 patients. […]
All data were analyzed according to a pre-established statistical analysis plan (SAP) and by intention-to-treat (ITT). […] The difference between DG-031 and placebo treatment was the primary outcome, assessed separately for each of the biomarkers. […]

Data set [1] deals with LTB4 produced by ionomycin-activated neutrophils ex vivo. As to the kind of experiment: Study DG-031-201: LTB4 in whole blood ex vivo after ionomycin activation (ELISA). More on the design: species or system human. How it is done: Patients who met the study eligebility criteria were enrolled and randomized into 3 different dose-level groups: (1) 64 patients on 250 mg/day therapy with DG-031 (250 mg q.d.), vs placebo; (2) 64 patients on 500 mg/day therapy with DG-031 (250 mg b.i.d.) vs placebo; and (3) 63 patients on 750 mg/day therapy with DG-031 (250 mg t.i.d.) vs placebo. […] All patients received 3 tablets per day. Treatment periods, 4 weeks in duration each, were separated by a 2-week washout period. The placebo tablets were identical in shape, color, form and taste to the active tablets except that they contained no active drug ingredients. Treatment with DG-031 or placebo was in addition to the subject's standard care, including all medications and treatment plan as prescribed by the subject's cardiologist prior to enrolment. A total of 191 subjects were enrolled, with 172 completing all 8 visits or 8 patients short of the target of 180 patients.
The primary objective was to determine whether the FLAP inhibitor has a statistically significant effect, compared to placebo, on one or more biomarkers of MI risk, including: (1) ionomycin-induced LTB4 and MPO release by neutrophils ex vivo; (2) MPO, CRP, N-tyrosine, Lp-PLA2 or amyloid A in serum, or (3) LTE4 in urine. The secondary objective was to determine whether the effect of DG-031 was dose-dependent. The tertiary objective was to assess other biomarkers (See Results). Evaluation of safety and tolerability of the drug was also a primary endpoint.
All data were analyzed according to a pre-established statistical analysis plan (SAP) and by intention-to-treat (ITT). Each arm of the study, as well as pooled sets (combining dose levels), was considered for the primary analysis. Each such set is an AB/BA cross-over design and in the primary analysis of efficacy, the levels of biomarkers of MI risk at the end of the treatment periods (visits 4 and 7) were used as primary response variables. The difference between DG-031 and placebo treatment was the primary outcome, assessed separately for each of the biomarkers. Treatment effect was tested using a two-sample t-test on the period differences for suitably transformed response variables, under an assumption of normality of the transformed data. We report treatment effect as one half of the observed mean differences in the two-sample t-test, with a 95% CI. No pre-tests for carry-over effect were performed as a part of the primary analysis. Tests for carry-over were done and are reported separately from results of primary analysis. All hypotheses were tested at a two-sided nominal significance level of 0.05 and p-values based on t-tests are reported. In addition, for the primary efficacy endpoints where the effects of the two highest doses on 10 primary variables were studied, a randomization test was performed which corrects for multiple testing and ensures that the key results are not affected by distributional concerns. In particular, 1 million permutations of the patients into the different study tracks were performed, generating a reference distribution for the maximum of the 10 t-statistics of the biomarkers under the null hypothesis of no drug effect. By comparing the observed t-statistic of each of the 10 biomarkers to this reference distribution, empirical p-values were computed. As was stated in the SAP prior to unblinding, it was considered likely that experimental manipulations would alter the effect of the drug on two of the primary markers; this was indeed the case and we are only reporting directly on 8 of the 10 primary markers but all 10 are included in the randomization test.
Biomarker measurements: The ELISA and mass spectrometry assays used are described in the following references: Profita et al., J Pharmacol Exp Ther. 300:868-75, 2002; Roberts et al., Clin Chem. 47:418-25, 2001; Dada et al., Expert Rev Mol Diagn. […]

Data set [2] is described as follows: Clinical studies, safety and tolerability in CAD patients. The class given is in vivo, human. How it is done: Previous clinical studies administered the dosages of DG-031 either in a single dose (QD) or twice a day (BID)
A total daily dose of 750 mg, dosed at 250 mg TID, provides a preferable PK/PD relationship (inhibition of LTB4) and efficacy in terms of lowering other biomarkers of MI risk (i.e. MPO and CRP).

For data set [3] the following is noted: healthy volunteers, cited from earlier work.
The nature of a further data set: clinical. The settings on record: human, in vivo.
A short description of data set [4]: Effect of a high fat meal on DG-031 pharmacokinetics. The class given is in vivo, human. The settings on record: administration with a high fat meal. The text has this: In the context of treatment of a single individual, a steady state concentration may be expected to fluctuate from day-to-day with variations in the individual's diet, level activity, state of health, co-administration of other medications, and the like. DG-031 is preferably administered with food to improve adsorption. […] In this context, the steady state concentration for an individual refers to an average concentration taken at multiple time points, to adjust for such fluctuation.

In data set [5] the test system is LTB4 production in human whole blood. The data set is described as follows: In vitro LTB4 production in human whole blood after ionomycin stimulation. The class given is cell-based. How it is done: Neutrophils and other cells in human whole blood respond in vitro to activation by a calcium ionophore (e.g., ionomycin), with an increase in LTB4 production and with coupled release of MPO stimulated in part by LTB4 production in the assay. The effect of DG-031 on the capacity for production of LTB4 in vitro after ionomycin stimulation was evaluated at concentrations ranging from 0.1 μM up to 240 μM.

Structures are written as SMILES. Values joined by “and” are separate entries in the source; they are usually repeats but may differ in a detail not shown here. Identical values can stand only once. Like-named read-outs stand apart in the source and are kept apart here. Bounds are passed on as bounds.

With `O=C(O)[C@@H](c1ccc(OCc2ccc3ccccc3n2)cc1)C1CCCC1` [DG-031, (R)-(+)-alpha-cyclopentyl-4-(2-quinolinylmethoxy)-Benzeneacetic acid], in the data set on Lp-PLA2, the “Increase of Lp-PLA2” value came out at 9%. In addition, the “Reduction of capacity for LTB4 production” value is listed as 18% in data set [1] (250 mg BID dose group, p=0.1); 13% in data set [1] (250 mg QD dose group, p=0.22); 34% in data set [1] (250 mg TID dose group, p=0.008); 30% in data set [1] (250 mg TID, at steady state Cmin, [0%,56%], p=0.02); “about 26%” in data set [1] (combined dose groups of 500 mg and 750 mg TDD, p=0.003). In addition, the LTB4 production in data set [1] (250 mg BID, Study 201, NS) was −18%; in data set [1] (250 mg QD, Study 201, 64 subjects, NS), −13%; in data set [1] (250 mg TID, St. 201, p = 0.008), −34% (St. 201). Moreover, the Safety and tolerability result was “safe and well tolerated” in data set [2] (250 mg QD, 375 mg QD, 250 mg BID, 375 mg BID and 250 mg TID); “safe and well tolerated” in data set [2] (total daily doses 375 mg and 750 mg, less than 8 days); “safe and well tolerated” in data set [2] (total daily doses 250, 500 and 750 mg, 128 days); “safe and well tolerated” in data set [3] (total daily dose 100, 200, 250, 300, 500, 750 and 1000 mg, less than 14 days); “safe and well tolerated” in data set [3] (total daily doses 500 mg and 1000 mg, 14-42 days). Also, the half-life in “clinical” (Dominant half-life, humans) is 2.5 to 3 h; in the data set “clinical” (Slower half-life, fraction of the dose with slower elimination), 10 to 15 h; in data set [4], “shorter half-life”. For the same compound, the “Increase in AUC” value in data set [4] turned out to be 30%. For the same compound, the “Increase in Cmax” value in data set [4] is on record as 150%. In addition, in data set [4], the Tmax result is on record as “no effect”. Moreover, in data set [5] (250 mg TID peak, assuming ex vivo parallels in vitro response), the “Expected reduction of capacity for LTB4 production at peak concentration” value is reported as “about 65%”. Further, in data set [5] (250 mg TID, concentrations above 2-3 μg/ml, assuming ex vivo parallels in vitro response), the “Expected reduction of capacity for LTB4 production at Cmin” value is on record as at least 30%. Further, in data set [5] (human whole blood, ionomycin stimulation, read-out: in vitro IC50, capacity for LTB4 production), the IC50 is ~3 µM and ~1.1 µg/mL.
